Assay results published in ChEMBL document CHEMBL1149986, “Topical antiinflammatory dehydroabietylamine derivatives. IV” (Bioorg Med Chem Lett, 1993).

Columns and labels:
Mus musculus [1] = assay: Tested for its antiinflammatory activity in the contact sensitive (CS) ear edema model; format: functional
Mus musculus [2] = assay: Tested for its antiinflammatory activity in the tetradecanoyl phorbol acetate induced ear edema model (TPA Ear); format: functional
[3] = biological target: Phospholipase A2, major isoenzyme (Sus scrofa, UniProt P00592); assay: Tested for its inhibitory activity against Phospholipase A2 (PLA2); design: species or system Mus musculus
Sequence of Phospholipase A2, major isoenzyme (P00592 whole entry): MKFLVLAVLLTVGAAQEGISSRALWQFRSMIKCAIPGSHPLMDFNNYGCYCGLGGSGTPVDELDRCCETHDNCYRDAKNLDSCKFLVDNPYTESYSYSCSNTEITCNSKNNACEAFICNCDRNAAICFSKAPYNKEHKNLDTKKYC

Mus musculus [4] = assay: Tested for its antiinflammatory activity in the A-23187 (calcium ionophore) ear edema model.; format: functional
Cyclooxygenase = biological target: T1, Cyclooxygenase (Bos taurus, UniProt O62664+O62698); assay: Tested for its inhibitory activity against PGS (prostaglandin synthetase).; format: protein assay
T1 sequence (O62664 whole entry): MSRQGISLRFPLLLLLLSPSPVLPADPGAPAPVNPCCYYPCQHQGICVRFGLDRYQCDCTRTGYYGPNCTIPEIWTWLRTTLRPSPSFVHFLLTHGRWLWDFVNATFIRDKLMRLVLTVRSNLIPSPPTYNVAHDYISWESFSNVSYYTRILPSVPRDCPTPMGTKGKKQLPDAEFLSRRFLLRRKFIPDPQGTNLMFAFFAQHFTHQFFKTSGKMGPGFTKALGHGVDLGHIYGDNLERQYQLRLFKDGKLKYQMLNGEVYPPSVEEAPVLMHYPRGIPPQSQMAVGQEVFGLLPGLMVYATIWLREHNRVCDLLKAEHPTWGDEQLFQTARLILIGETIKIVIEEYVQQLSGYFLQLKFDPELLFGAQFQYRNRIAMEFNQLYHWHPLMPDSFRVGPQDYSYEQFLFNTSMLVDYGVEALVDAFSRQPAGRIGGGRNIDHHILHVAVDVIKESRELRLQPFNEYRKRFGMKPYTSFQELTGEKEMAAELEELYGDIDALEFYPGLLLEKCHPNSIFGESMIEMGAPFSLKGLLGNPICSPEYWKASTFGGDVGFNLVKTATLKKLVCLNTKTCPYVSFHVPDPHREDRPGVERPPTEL
T1 sequence (O62698 whole entry): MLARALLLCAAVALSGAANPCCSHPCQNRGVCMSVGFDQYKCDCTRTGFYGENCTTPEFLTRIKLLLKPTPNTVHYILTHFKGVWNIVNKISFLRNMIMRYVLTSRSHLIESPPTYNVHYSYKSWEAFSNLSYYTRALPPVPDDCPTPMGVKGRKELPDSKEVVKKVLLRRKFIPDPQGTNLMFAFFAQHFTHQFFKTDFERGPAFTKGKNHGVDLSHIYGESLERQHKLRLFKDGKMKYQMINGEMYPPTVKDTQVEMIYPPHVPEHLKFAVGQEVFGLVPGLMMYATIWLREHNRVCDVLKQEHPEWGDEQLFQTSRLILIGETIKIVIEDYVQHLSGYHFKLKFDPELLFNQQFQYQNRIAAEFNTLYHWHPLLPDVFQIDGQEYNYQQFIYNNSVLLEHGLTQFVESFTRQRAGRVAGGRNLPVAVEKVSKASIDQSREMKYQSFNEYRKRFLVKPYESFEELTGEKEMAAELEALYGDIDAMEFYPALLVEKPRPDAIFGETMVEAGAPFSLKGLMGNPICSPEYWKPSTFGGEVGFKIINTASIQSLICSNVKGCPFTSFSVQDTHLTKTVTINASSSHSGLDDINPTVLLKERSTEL

[5] = biological target: T2, Polyunsaturated fatty acid 5-lipoxygenase (Rattus norvegicus, UniProt P12527); assay: Tested for its inhibitory activity against 5-lipoxygenase
T2 sequence (P12527 whole entry): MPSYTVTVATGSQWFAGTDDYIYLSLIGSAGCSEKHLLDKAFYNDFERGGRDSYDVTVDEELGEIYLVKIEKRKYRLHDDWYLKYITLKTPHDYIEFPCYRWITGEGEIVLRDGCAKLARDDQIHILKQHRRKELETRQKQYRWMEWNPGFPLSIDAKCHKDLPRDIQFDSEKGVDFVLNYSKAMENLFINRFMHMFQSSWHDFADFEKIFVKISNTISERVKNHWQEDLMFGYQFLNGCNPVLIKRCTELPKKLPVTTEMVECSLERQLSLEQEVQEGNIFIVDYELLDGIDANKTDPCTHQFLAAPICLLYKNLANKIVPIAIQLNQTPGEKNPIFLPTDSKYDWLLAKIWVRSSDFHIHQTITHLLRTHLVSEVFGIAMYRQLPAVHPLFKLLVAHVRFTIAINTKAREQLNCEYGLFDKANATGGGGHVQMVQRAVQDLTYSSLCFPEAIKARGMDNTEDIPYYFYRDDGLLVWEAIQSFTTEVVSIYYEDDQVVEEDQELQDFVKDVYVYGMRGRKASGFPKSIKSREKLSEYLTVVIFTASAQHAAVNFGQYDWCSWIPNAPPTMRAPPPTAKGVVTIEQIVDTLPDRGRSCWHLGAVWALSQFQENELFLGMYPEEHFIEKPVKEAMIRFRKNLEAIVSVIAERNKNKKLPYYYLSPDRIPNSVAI

Mus musculus [6] = assay: Tested for its antiinflammatory activity in the arachidonic acid(AA) induced ear edema model; format: functional

SMILES	IC50 [3]	IC50 (Cyclooxygenase)	IC50 [5]	ED50 (Mus musculus [1])	ED50 (Mus musculus [2])	ED50 (Mus musculus [4])	ED50 (Mus musculus [6])
CC(=O)NC(CCN(C[C@]1(C)CCC[C@]2(C)c3ccc(C(C)C)cc3CCC12)C(C)=O)c1ccc(F)cc1 (stereo partly specified)	90.5 µM	124 µM	> 25 µM	>100 ug ear-1	10 ug ear-1	84.7 ug ear-1	>100 ug ear-1
CCN(CC)CCCC(C)Nc1c2ccc(Cl)cc2nc2ccc(OC)cc12 (stereo unspecified) [QUINACRINE]	100 µM	32.6 µM			>100 ug ear-1	>100 ug ear-1	>100 ug ear-1
CC(C)c1ccc2c(c1)CCC1[C@](C)(CNCc3ccccc3C(=O)O)CCC[C@]21C.Cl (stereo partly specified)	34.5 µM	220 µM	> 25 µM	>100 ug ear-1	16 ug ear-1	64.1 ug ear-1	>100 ug ear-1
CC(C)c1ccc2c(c1)CCC1[C@](C)(CNCC3CCCN3)CCC[C@]21C.Cl.Cl (stereo partly specified)	28 µM	62 µM		90 ug ear-1	18 ug ear-1	200 ug ear-1	>100 ug ear-1

More lines, main results first:

IC50 [3]	IC50 (Cyclooxygenase)	IC50 [5]	SMILES	ED50 (Mus musculus [1])	ED50 (Mus musculus [2])	ED50 (Mus musculus [4])	ED50 (Mus musculus [6])
21 µM	71 µM	8 µM	CC(C)c1ccc2c(c1)CC[C@H]1C(C)(CN)CCC[C@]21C.Cl (stereo partly specified)	19.8 ug ear-1	130.7 ug ear-1		>100 ug ear-1
> 750 µM		120 µM	C[C@@H]1C[C@H]2[C@@H]3CCC4=CC(=O)C=C[C@]4(C)[C@@]3(F)[C@@H](O)C[C@]2(C)[C@@]1(O)C(=O)CO [DEXAMETHASONE]	0.7 ug ear-1		0.5 ug ear-1	>100 ug ear-1
		> 250 µM	COc1ccc2c(c1)c(CC(=O)O)c(C)n2C(=O)c1ccc(Cl)cc1 [INDOMETHACIN]			254 ug ear-1	1000 ug ear-1
5.4 µM	390 µM	1.2 µM	CC(N)CCCNC[C@]1(C)CCC[C@]2(C)c3ccc(C(C)C)cc3CCC12.Cl.Cl (stereo partly specified)	>100 ug ear-1	18.8 ug ear-1	>200 ug ear-1	100 ug ear-1
